Measurements as given in patent US6825165B1, “Betacellulin modification” (Takeda Chemical Industries, Ltd., priority 1998, dated 2004).
No end group written: not given here.

Legend:
AR42J cells = test: β cell differentiation promoting activity using AR42J cells (anti-insulin immunofluorescence), Example 26; type: cell-based; conditions: 5 days incubation; for Differentiation into insulin-producing β cells (stained cells under fluorescent microscope): anti-insulin antibody/FITC staining; for Incidence of insulin-producing cells: comparison between the proteins
Experimental: Cells of the AR42J cell line derived from pancreatic cancer induced by chemical carcinogens (Christophe, Am. J. Physiol., 266: G963 (1994)) were suspended to a concentration of 10^5 cells/mL in Dulbecco's modified Eagle MEM medium containing 10% fetal calf serum and one of hBTC50, Mutein A, Mutein B, or the 80-residue betacellulin (hBTC80) prepared in accordance with the method in Japanese Unexamined Patent Application (Kokai) H10-191989. 500 μL of these suspensions was inoculated on chamber slides and incubated for 5 days at 37° C. in carbon dioxide gas incubators (5% carbon dioxide gas, 95% air). After 5 days, the cells were washed once with PBS, fixed in 10% formaldehyde, and treated for 5 min with 0.1% Triton X-100. Block Ace (Snow Brand, Japan) was then added for 40 minutes of blocking at room temperature. Anti-insulin antibodies (by Advanced Immunochemicals) diluted with 10% Block Ace were added, and reacted for 40 minutes at room temperature. 0.1% Triton X-100 was added, the reaction solution was allowed to stand for 5 minutes at room temperature, and the cells were then washed three times with PBS. FITC (fluorescein isothiocyanate) labeled anti-mouse IgG antibodies (Cappel) diluted with 10% Block Ace were added, and a reaction was brought about for 40 minutes. 0.1% Triton X-100 was added, the reaction solution was allowed to stand for 5 minutes, the cells were then washed three times with PBS, and they were then observed under a fluorescent microscope.

[1] = test system: PLAP expression AR42J cells; test: β cell differentiation promoting activity using PLAP expression AR42J cells (AR71-104 clone), Example 27; type: cell-based; conditions: 5 days, A405, 100% is the maximum absorbance when hBTC50 was added
Experimental: The differentiation promoting activity into β cells was also determined using AR42J cells transformed with the vector having alkaline phosphatase which had been ligated as a reporter downstream of the insulin promoter. Specifically, cells which have differentiated into β cells by addition of betacellulin produce alkaline phosphatase. As a result, by assaying the alkaline phosphatase activity, the differentiation promoting activity into β cells can be quantitatively assayed.
Cells of each clone were seeded on 24-well plates and cultured for 4 days with and without the addition of 20 ng/mL 80-residue BTC, the supernatant was collected and heat treated for 30 minutes at 65° C., and the alkaline phosphatase activity in the media was then assayed. Clones showing increased alkaline phosphatase activity with the addition of 80-residue betacellulin were selected. The AR71-104 clone was used below.
PLAP expression AR42J cells constructed in 3-2) were suspended to a concentration of 3×10^4 cells/mL in Dulbecco's modified Eagle MEM medium containing 10% fetal calf serum and on of varying concentrations of the hBTC50 or Mutein A or B prepared above. […] The samples were held for 10 minutes at 37° C., and 10 μL of 20 mg/mL p-nitrophenylphosphoric acid (Sigma) was added, a reaction was brought about for 16 hours at 37° C., and the absorbance at 405 nm (A405) was determined.

[2] = test system: 3T3 A31-714 Clone 4 cells; test: Cell growth promoting activity using 3T3 cells (3H-thymidine uptake), Example 25; type: cell-based, mouse; conditions: 3H-thymidine uptake into 3T3 A31-714 Clone 4; 100% is the maximum uptake of the 80-residue betacellulin
Experimental: The cell growth promoting activity was assayed by means of the ^3H-thymidine uptake into stationary 3T3 A31-714 Clone 4 (International Journal of Cancer, 12:463 (1973)) as described in Molecular Cell Biology, 8:588 (1988).
100 μL 3T3 A31-714 Clone 4 suspended to 1000 cells/mL using Dulbecco's modified Eagle MEM medium containing 5% bovine serum were seeded to 96 well plates and cultured for a day at 37° C. in carbon dioxide gas incubators (5% carbon dioxide gas, 95% air). 75 μL of supernatant was taken, and 100 μL of serum-free Dulbecco's modified Eagle MEM medium was added to adjust the serum concentration to 1%. Two more days of culture was followed by the addition of varying concentrations of the hBTC50, Mutein A, or Mutein B prepared in the above examples. 16 hours after these had been added, ^3H-thymidine (Amersham Pharmacia Biotech) was added in an amount of 0.25 μCi/well, after 4 hours the cells were washed 3 times with PBS, 100 μL of 5% SDS was added, and the cells were lysed. The cell lysate was transferred to scintillation vials, 1 mL of Scintillator A (Wako Pure Chemicals) was added, and the uptake of ^3H-thymidine into the cellwas assayed with a scintillation counter.

Row | Substance | Differentiation into insulin-producing β cells (stained cells under fluorescent microscope) (AR42J cells) | Incidence of insulin-producing cells (AR42J cells) | activity inducing differentiation to β cells ED50 [1] [nM] | cell growth promoting activity ED50 [2] [nM]
1 | Mutein A: hBTC50 with 3 amino acids (Asn, Pro, Ser) of the heregulin sequence inserted between Cys3-Cys4; SEQ ID NO: 44 (RKGHFSRCPKQYKHYCIKGRCRFVVAEQNPSTPSCVCDEGYIGARCERVDLFY; ends and bridges not checked; cysteine pairing not given here) | cells which had differentiated into insulin-producing β cells, were found | no differences in the incidence of insulin-producing cells | 0.5 | 0.6
2 | Mutein B: hBTC50 in which seven N terminal residues were substituted with five corresponding EGF residues; SEQ ID NO: 45 (NSDSECPKQYKHYCIKGRCRFVVAEQTPSCVCDEGYIGARCERVDLFY; ends and bridges not checked; cysteine pairing not given here) | cells which had differentiated into insulin-producing β cells, were found | no differences in the incidence of insulin-producing cells | 0.7 | >10.0
